The results in this text go back to patent publication US10766884B2 (Pfizer Inc., priority 2018, dated 2020).

For one assay, the target named is CDK6/Cyclin D3 (Homo sapiens (Human), UniProt Q00534). The assay is described as follows: CDK6/Cyclin D3 mobility shift assay. In kind it is biochemical. The following applies: activated CDK6/Cyclin D3, 3.5 mM ATP, Morrison fit; read-out: CDK6_D3 Ki.
A further assay concerns the target CDK4/Cyclin D1 (Homo sapiens (Human), UniProt P11802). The assay is described as follows: CDK4/Cyclin D1 mobility shift assay. Format: biochemical. The following applies: activated CDK4/Cyclin D1, 3.5 mM ATP, Morrison fit; read-out: CDK4D1 Ki.
Another assay addresses CDK4 (Homo sapiens (Human), UniProt P11802). In words: Phospho-Serine 795 Rb ELISA assay in JEKO-1 cells. In kind it is cell-based. The following applies: overnight treatment, phospho-Rb S795, read-out: CDK4 pRB S795 ELISA JEKO-1 cells IC50.
The target of another assay is CDK6 (Homo sapiens (Human), UniProt Q00534). In words: Phospho-Serine 795 Rb ELISA assay in MV4-11 cells. The note with it: overnight treatment, phospho-Rb S795, read-out: CDK6 pRB S795 ELISA MV4-11 cells IC50. In kind it is cell-based. On the technique in general: An ELISA detects its analyte on a solid surface through an enzyme-linked reagent.
CDK6, sequence (Q00534 whole entry): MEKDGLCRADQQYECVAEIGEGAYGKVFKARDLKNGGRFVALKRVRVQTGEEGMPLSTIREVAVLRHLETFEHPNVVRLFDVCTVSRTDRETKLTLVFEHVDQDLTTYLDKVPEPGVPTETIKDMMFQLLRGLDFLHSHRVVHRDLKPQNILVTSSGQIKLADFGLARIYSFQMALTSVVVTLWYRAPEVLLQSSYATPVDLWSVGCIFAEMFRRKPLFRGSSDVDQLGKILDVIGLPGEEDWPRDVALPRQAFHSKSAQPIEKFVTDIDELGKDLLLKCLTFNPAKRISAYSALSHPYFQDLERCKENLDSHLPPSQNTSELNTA
CDK6, sequence (P30281 whole entry partner): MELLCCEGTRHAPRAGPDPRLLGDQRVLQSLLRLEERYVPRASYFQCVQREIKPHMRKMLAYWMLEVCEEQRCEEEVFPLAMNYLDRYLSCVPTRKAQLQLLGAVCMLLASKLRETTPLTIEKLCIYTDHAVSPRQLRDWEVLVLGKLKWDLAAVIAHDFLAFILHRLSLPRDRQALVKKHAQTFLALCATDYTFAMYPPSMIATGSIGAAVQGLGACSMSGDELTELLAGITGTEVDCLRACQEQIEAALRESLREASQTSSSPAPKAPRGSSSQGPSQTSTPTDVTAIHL

Counter-ions that a name gives are not always drawn.

CDK6/Cyclin D3, sequence (Q00534 whole entry): as the sequence (Q00534 whole entry) above
CDK6/Cyclin D3, sequence (P30281 whole entry partner): as the sequence (P30281 whole entry partner) above
CDK4, sequence (P11802 2-303): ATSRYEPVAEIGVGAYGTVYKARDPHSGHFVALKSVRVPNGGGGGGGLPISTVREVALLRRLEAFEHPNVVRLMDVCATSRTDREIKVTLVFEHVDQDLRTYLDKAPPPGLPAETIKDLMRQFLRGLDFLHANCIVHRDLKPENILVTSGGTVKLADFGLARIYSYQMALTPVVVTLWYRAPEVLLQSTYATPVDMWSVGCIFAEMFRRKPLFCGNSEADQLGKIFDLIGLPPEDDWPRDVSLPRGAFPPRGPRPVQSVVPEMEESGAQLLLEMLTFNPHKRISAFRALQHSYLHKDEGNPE
CDK4, sequence (P24385 whole entry partner): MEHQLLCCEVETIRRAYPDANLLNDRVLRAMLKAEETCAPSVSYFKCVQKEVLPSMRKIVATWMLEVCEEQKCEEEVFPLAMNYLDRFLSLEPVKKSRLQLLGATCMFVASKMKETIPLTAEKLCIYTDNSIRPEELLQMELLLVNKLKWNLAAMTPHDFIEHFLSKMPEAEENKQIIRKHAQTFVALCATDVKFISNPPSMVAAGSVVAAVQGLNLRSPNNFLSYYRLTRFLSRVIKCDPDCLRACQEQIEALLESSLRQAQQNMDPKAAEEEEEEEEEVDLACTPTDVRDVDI
CDK4/Cyclin D1, sequence (P11802 whole entry): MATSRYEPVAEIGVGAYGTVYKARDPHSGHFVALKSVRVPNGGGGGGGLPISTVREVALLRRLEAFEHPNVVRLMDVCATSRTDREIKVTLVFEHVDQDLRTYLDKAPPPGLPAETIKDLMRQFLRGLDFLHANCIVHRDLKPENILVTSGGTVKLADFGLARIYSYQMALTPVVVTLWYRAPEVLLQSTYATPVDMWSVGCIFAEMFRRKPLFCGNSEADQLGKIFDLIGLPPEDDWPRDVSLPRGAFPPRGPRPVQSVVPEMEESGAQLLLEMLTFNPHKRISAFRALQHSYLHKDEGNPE
CDK4/Cyclin D1, sequence (P24385 whole entry partner): as the sequence (P24385 whole entry partner) above

Take `CC(C)n1c(C(C)(C)N)nc2c(F)cc(-c3nc(N[C@@H]4CCOC[C@H]4O)ncc3Cl)cc21` [Example A41, 3-({4-[2-(2-aminopropan-2-yl)-4-fluoro-1-(propan-2-yl)-1H-benzimidazol-6-yl]-5-chloropyrimidin-2-yl}amino)-1,5-anhydro-2,3-dideoxy-D-threo-pentitol]: the figures for the Ki at CDK6/Cyclin D3 and at CDK4/Cyclin D1 were 48.8 nM and 3.1 nM, respectively. Also, the IC50 at CDK4 was found to be 92.8 nM; at CDK6 it was 216 nM.

Turning to `CC(C)n1c(C(F)F)nc2c(F)cc(-c3nc(N[C@@H]4CCN(S(C)(=O)=O)C[C@H]4O)ncc3Cl)cc21` [Example A69, (3R,4R)-4-({5-chloro-4-[2-(difluoromethyl)-4-fluoro-1-(propan-2-yl)-1H-benzimidazol-6-yl]pyrimidin-2-yl}amino)-1-(methanesulfonyl)piperidin-3-ol], the results for the Ki at CDK6/Cyclin D3 and on CDK4/Cyclin D1 were 4.9 nM and 0.7 nM, respectively. Also, the figures for the IC50 at CDK4 and on CDK6 were 101 nM and 238 nM, respectively.

With `CC(O)c1nc2c(F)cc(-c3nc(N[C@@H]4CCOC[C@H]4O)ncc3Cl)cc2n1C(C)C(F)F` (single isomer, unassigned) [Example A36], the figures for the inhibition constant Ki at CDK6/Cyclin D3 and on CDK4/Cyclin D1 were 3.7 nM and 0.2 nM, respectively. The IC50 is 19.6 nM at CDK4 and 43.9 nM on CDK6.

For the compound `CC(C)(C)n1cnc2c(F)cc(-c3nc(N[C@@H]4CCN(CCO)C[C@H]4O)ncc3Cl)cc21` [Example F05, (3R,4R)-4-{[4-(1-tert-butyl-4-fluoro-1H-benzimidazol-6-yl)-5-chloropyrimidin-2-yl]amino}-1-(2-hydroxyethyl)piperidin-3-ol formic acid salt], the values for the inhibitory constant (Ki) at CDK6/Cyclin D3 and at CDK4/Cyclin D1 were 25.8 nM and 2.1 nM, respectively. The IC50 stood at 248 nM at CDK4 and 478 nM on CDK6.

In the case of `CC(C)n1c([C@H](C)N)nc2c(F)cc(-c3nc(N[C@@H]4CCOC[C@H]4O)ncc3Cl)cc21` [Example A53, 3-[(4-{2-[(1S)-1-aminoethyl]-4-fluoro-1-(propan-2-yl)-1H-benzimidazol-6-yl}-5-chloropyrimidin-2-yl)amino]-1,5-anhydro-2,3-dideoxy-D-threo-pentitol], the Ki stood at 16.7 nM at CDK6/Cyclin D3 and 0.6 nM on CDK4/Cyclin D1. The figures for the IC50 on CDK4 and on CDK6 were 67.3 nM and 208 nM, respectively.

With `COC(=O)N1CC[C@@H](Nc2ncc(F)c(-c3cc(F)c4nc(C)n(C(C)C)c4c3)n2)[C@H](O)C1` [Example F01, methyl (3R,4R)-4-({5-fluoro-4-[4-fluoro-2-methyl-1-(propan-2-yl)-1H-benzimidazol-6-yl]pyrimidin-2-yl}amino)-3-hydroxypiperidine-1-carboxylate], the inhibition constant (Ki) at CDK6/Cyclin D3 came out at 14.6 nM; at CDK4/Cyclin D1 it was 0.8 nM. Also, the IC50 was 114 nM at CDK4 and 576 nM on CDK6.

As for `CC(C)n1c([C@H](C)O)nc2cc(F)c(-c3nc(N[C@@H]4CCOC[C@H]4O)ncc3Cl)cc21` [Example A12], the results for the Ki on CDK6/Cyclin D3 and at CDK4/Cyclin D1 were 7.9 nM and 0.6 nM, respectively. The IC50 came out at 29.8 nM on CDK4 and 108 nM on CDK6.

As to `CC(C)n1c(C(C)(C)O)nc2c(F)cc(-c3nc(N[C@@H]4CCOC[C@H]4O)ncc3F)cc21` [Example A68, 1,5-anhydro-2,3-dideoxy-3-({5-fluoro-4-[4-fluoro-2-(2-hydroxpropan-2-yl)-1-(propan-2-yl)-1H-benzimidazol-6-yl]pyrimidin-2-yl}amino)-D-threo-pentitol], the figures for the Ki on CDK6/Cyclin D3 and at CDK4/Cyclin D1 were 14.3 nM and 0.7 nM, respectively. Further, the IC50 is 48.7 nM on CDK4 and 235 nM at CDK6.

Take `CC(C)n1c(CN2CC(F)C2)nc2c(F)cc(-c3nc(N[C@@H]4CCOC[C@H]4O)ncc3Cl)cc21` [Example H06, 1,5-anhydro-3-[(5-chloro-4-{4-fluoro-2-[(3-fluoroazetidin-1-yl)methyl]-1-(propan-2-yl)-1H-benzimidazol-6-yl}pyrimidin-2-yl)amino]-2,3-dideoxy-D-threo-pentitol]: the inhibitory constant (Ki) was determined as 35.6 nM at CDK6/Cyclin D3 and 1.1 nM at CDK4/Cyclin D1. Moreover, the IC50 at CDK4 came to 79.6 nM; on CDK6 it was 343 nM.

Take `CC(C)n1c(CO)nc2c(F)cc(-c3nc(N[C@@H]4CCN(S(C)(=O)=O)C[C@H]4O)ncc3Cl)cc21` [Example A87, (3R,4R)-4-({5-chloro-4-[4-fluoro-2-(hydroxymethyl)-1-(propan-2-yl)-1H-benzimidazol-6-yl]pyrimidin-2-yl}amino)-1-(methanesulfonyl)piperidin-3-ol]: the Ki came out at 2.8 nM at CDK6/Cyclin D3 and 0.2 nM at CDK4/Cyclin D1. Moreover, the IC50 at CDK4 stood at 40.1 nM; on CDK6 it was 97.7 nM.

`CC(C)n1cnc2c(F)cc(-c3nc(N[C@@H]4CCN(C(=O)C5(N)CC5)C[C@H]4O)ncc3Cl)cc21` [Example F28, (1-aminocyclopropyl)[(3R,4R)-4-({5-chloro-4-[4-fluoro-1-(propan-2-yl)-1H-benzimidazol-6-yl]pyrimidin-2-yl}amino)-3-hydroxypiperidin-1-yl]methanone]: the Ki worked out at 22.3 nM on CDK6/Cyclin D3 and 2.2 nM on CDK4/Cyclin D1. Further, the IC50 at CDK4 worked out at 191 nM; on CDK6, 745 nM.

With `Cc1nc2ccc(-c3cc(N[C@@H]4CCN(S(C)(=O)=O)C[C@H]4O)ncc3Cl)nc2n1C(C)C` [Example D04, (3R,4R)-4-({5-chloro-4-[2-methyl-3-(propan-2-yl)-3H-imidazo[4,5-b]pyridin-5-yl]pyridin-2-yl}amino)-1-(methanesulfonyl)piperidin-3-ol], the Ki was 12.5 nM at CDK6/Cyclin D3 and 0.6 nM at CDK4/Cyclin D1. Besides, the 50% inhibitory concentration (IC50) stood at 68.2 nM on CDK4 and 172 nM at CDK6.

Turning to `CC(C)n1c(CC2(N)CCCC2)nc2c(F)cc(-c3nc(N[C@@H]4CCOC[C@H]4O)ncc3Cl)cc21` [Example A59, 3-[(4-{2-[(1-aminocyclopentyl)methyl]-4-fluoro-1-(propan-2-yl)-1H-benzimidazol-6-yl}-5-chloropyrimidin-2-yl)amino]-1,5-anhydro-2,3-dideoxy-D-threo-pentitol], the inhibitory constant (Ki) on CDK6/Cyclin D3 was 56.7 nM; on CDK4/Cyclin D1 it was 0.6 nM. The IC50 at CDK4 stood at 47.7 nM; at CDK6, 521 nM.

For `Cc1nc2ccc(-c3nc(N[C@@H]4CCN(S(C)(=O)=O)C[C@H]4O)ncc3F)cc2n1C(C)(C)C` [Example A78, (3R,4R)-4-{[4-(1-tert-butyl-2-methyl-1H-benzimidazol-6-yl)-5-fluoropyrimidin-2-yl]amino}-1-(methanesulfonyl)piperidin-3-ol], the inhibitory constant (Ki) at CDK6/Cyclin D3 worked out at 1.8 nM; at CDK4/Cyclin D1, 0.1 nM. Moreover, the results for the IC50 at CDK4 and at CDK6 were 26.4 nM and 73.9 nM, respectively.

In the case of `Cc1nc2cc(F)c(-c3ccnc(N[C@@H]4CCN(S(C)(=O)=O)C[C@H]4O)n3)cc2n1C(C)C` [Example A05], the Ki on CDK6/Cyclin D3 is 50.8 nM; at CDK4/Cyclin D1 it was 3.3 nM. Moreover, the IC50 at CDK4 is 225 nM; at CDK6 it was 541 nM.

As for `Cc1nc2c(F)cc(-c3nc(N[C@@H]4CCN(C(=O)CO)C[C@H]4O)ncc3F)cc2n1C(C)C` [Example F17, 1-[(3R,4R)-4-({5-fluoro-4-[4-fluoro-2-methyl-1-(propan-2-yl)-1H-benzimidazol-6-yl]pyrimidin-2-yl}amino)-3-hydroxypiperidin-1-yl]-2-hydroxyethan-1-one], the inhibition constant Ki came to 8.3 nM at CDK6/Cyclin D3 and 0.5 nM at CDK4/Cyclin D1. Besides, the IC50 is 83.2 nM on CDK4 and 127 nM on CDK6.

With `Cc1nc2c(F)cc(-c3nc(N[C@@H]4CCN(S(C)(=O)=O)C[C@H]4O)ncc3Cl)cc2n1C(C)C` [Example A01, (3R,4R)-4-({5-chloro-4-[4-fluoro-2-methyl-1-(propan-2-yl)-1H-benzimidazol-6-yl]pyrimidin-2-yl}amino)-1-(methanesulfonyl)piperidin-3-ol], the Ki on CDK6/Cyclin D3 was found to be 2.3 nM; at CDK4/Cyclin D1, 0.1 nM. Also, the IC50 was 25.3 nM on CDK4 and 76.5 nM at CDK6.

Consider `CC(C)n1c(CC(N)C(F)F)nc2c(F)cc(-c3nc(N[C@@H]4CCOC[C@H]4O)ncc3Cl)cc21` (single isomer, unassigned) [Example A58, 3-({4-[2-(2-amino-3,3-difluoropropyl)-4-fluoro-1-(propan-2-yl)-1H-benzimidazol-6-yl]-5-chloropyrimidin-2-yl}amino)-1,5-anhydro-2,3-dideoxy-D-threo-pentitol], for which the Ki on CDK6/Cyclin D3 worked out at 17.6 nM; on CDK4/Cyclin D1, 0.6 nM. Further, the IC50 turned out to be 33.1 nM at CDK4 and 203 nM at CDK6.

For `CC(C)n1cnc2c(Cl)cc(-c3nc(N[C@@H]4CCN(C(=O)[C@@H](C)O)C[C@H]4O)ncc3Cl)cc21` [Example F20, (2R)-1-[(3R,4R)-4-({5-chloro-4-[4-chloro-1-(propan-2-yl)-1H-benzimidazol-6-yl]pyrimidin-2-yl}amino)-3-hydroxypiperidin-1-yl]-2-hydroxypropan-1-one], the results for the Ki on CDK6/Cyclin D3 and at CDK4/Cyclin D1 were 24.3 nM and 2 nM, respectively. Also, the results for the half-inhibitory concentration (IC50) at CDK4 and on CDK6 were 155 nM and 787 nM, respectively.

On to `COCC(C)n1c(C)nc2c(F)cc(-c3nc(N[C@@H]4CCN(S(C)(=O)=O)C[C@H]4O)ncc3Cl)cc21` (single isomer, unassigned) [Example A74], for which the inhibitory constant (Ki) was 6.2 nM on CDK6/Cyclin D3 and 0.2 nM at CDK4/Cyclin D1. Moreover, the half-maximal inhibitory concentration (IC50) is 26.5 nM on CDK4 and 89.7 nM on CDK6.

Regarding `Cc1nc2c(F)cc(-c3nc(N[C@@H]4CCN(S(C)(=O)=O)C[C@H]4O)ncc3C#N)cc2n1C(C)C` [Example B01, 4-[4-fluoro-2-methyl-1-(propan-2-yl)-1H-benzimidazol-6-yl]-2-{[(3R,4R)-3-hydroxy-1-(methanesulfonyl)piperidin-4-yl]amino}pyrimidine-5-carbonitrile], the Ki at CDK6/Cyclin D3 was found to be 1.5 nM; on CDK4/Cyclin D1, 0.1 nM. Besides, the figures for the IC50 at CDK4 and on CDK6 were 65.6 nM and 129 nM, respectively.

Broadly, the Ki is the equilibrium dissociation constant of an inhibitor or competing ligand from its target. One may read the IC50 as the concentration that gives 50% inhibition.
